The values that follow come from BindingDB's records for doi:10.1021/np100503q (The Ohio State University, 2010).

The target of the assay is Transcription factor p65 (Human, UniProt Q04206). The assay can be described thus: Inhibition of NF-kappaB p65 isolated from nuclear extract of human HeLa cells assessed as blockade of binding to biotinylated consesus sequence by chemiluminescence assay.
Transcription factor p65, sequence (Q04206 whole entry): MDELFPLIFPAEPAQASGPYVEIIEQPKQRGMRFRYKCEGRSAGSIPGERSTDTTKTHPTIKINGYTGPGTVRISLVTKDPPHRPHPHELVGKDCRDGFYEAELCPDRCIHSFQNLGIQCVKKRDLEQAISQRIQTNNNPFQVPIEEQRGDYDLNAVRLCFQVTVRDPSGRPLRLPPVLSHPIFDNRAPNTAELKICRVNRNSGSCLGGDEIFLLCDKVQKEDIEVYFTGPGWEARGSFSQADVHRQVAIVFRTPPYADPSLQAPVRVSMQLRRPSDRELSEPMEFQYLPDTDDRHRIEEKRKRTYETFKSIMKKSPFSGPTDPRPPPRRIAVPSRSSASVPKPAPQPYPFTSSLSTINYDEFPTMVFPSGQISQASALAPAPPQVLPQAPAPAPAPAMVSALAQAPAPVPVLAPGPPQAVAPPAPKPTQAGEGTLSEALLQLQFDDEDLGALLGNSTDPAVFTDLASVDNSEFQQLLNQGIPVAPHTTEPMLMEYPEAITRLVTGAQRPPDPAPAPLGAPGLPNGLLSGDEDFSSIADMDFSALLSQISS

With `COC(=O)[C@H]1[C@@H](O)[C@@]2(O)c3c(OC)cc(O[C@@H]4O[C@@H]([C@H](O)CO)CO[C@@H]4OC)cc3O[C@@]2(c2ccc(OC)cc2)[C@@H]1c1ccccc1` [5'''-episilvestrol], the IC50 is over 20 µM.
